As a reminder, the IC50 is the concentration that inhibits the measured activity by half. A high value points to lower potency.

For this test, the target named is VIM-2 metallo β-lactamase (Pseudomonas aeruginosa, UniProt Q9K2N0). Put plainly: VIM-2 CCF2 hydrolysis inhibition, assay artifact filter – biochemical, FRET readout, CCF2 substrate, artefact control for selective VIM-2 inhibitor project, dose response (AID 1926).
`COc1cc(OC)c(OC)cc1C=NNC(=O)Cc1c(C)[nH][nH]c1=O` [MLS000555854] showed an IC50 of 1.46 µM. To `O=C1C(=O)N(Cc2cccnc2)C(c2ccccn2)C1C(=O)c1cccs1` (configuration not stated) [3-hydroxy-5-(2-pyridinyl)-1-(3-pyridinylmethyl)-4-(2-thienylcarbonyl)-1,5-dihydro-2H-pyrrol-2-one] belongs 4.83 µM; to `COc1ccc(C(=O)C2C(=O)C(=O)N(Cc3ccco3)C2c2cc(OC)ccc2OC)cc1` (configuration not stated) [(4E)-5-(2,5-dimethoxyphenyl)-1-(2-furanylmethyl)-4-[hydroxy-(4-methoxyphenyl)methylidene]pyrrolidine-2,3-dione], 5.61 µM. The same measure for `COc1ccc(OC)c(C2C(C(=O)c3ccco3)C(=O)C(=O)N2Cc2cccnc2)c1` (configuration not stated) [2-(2,5-dimethoxyphenyl)-3-(furan-2-carbonyl)-4-hydroxy-1-(pyridin-3-ylmethyl)-2H-pyrrol-5-one]: 0.7 µM. To `O=C1C(=O)N(Cc2cccnc2)C(c2ccccn2)C1C(=O)c1ccc(F)cc1` (configuration not stated) [(4Z)-4-[(4-fluorophenyl)-hydroxy-methylene]-5-(2-pyridyl)-1-(3-pyridylmethyl)pyrrolidine-2,3-quinone] belongs 0.941 µM.

`COc1ccc(OC)c(C=NNC(=O)Cc2c(C)[nH][nH]c2=O)c1` [SMR000147372] registered an IC50 of 2.13 µM. Compound `O=C1C(=O)N(Cc2cccnc2)C(c2ccccn2)C1C(=O)c1ccccc1` (configuration not stated) [(4Z)-4-[hydroxy(phenyl)methylene]-5-(2-pyridyl)-1-(3-pyridylmethyl)pyrrolidine-2,3-quinone] returned an IC50 of 2.17 µM.

Source of the values: BindingDB's records for doi:10.7270/Q2NS0S90 (The Scripps Research Institute Molecular Screening Center, 2009).
